The IC50 is the midpoint of a concentration-inhibition curve.

Consider 25 compounds from patent US20090270394A1, “CYCLYLAMINE DERIVATIVES AS CALCIUM CHANNEL BLOCKERS” (priority 2008, published 2009).

The target of this test is T1, Human Cav2.2 channels (Homo sapiens, UniProt Q00975).
T1 construct: expressed in transfected cells
As to the kind of experiment: Fluorescent assay for Cav2.2 channels using potassium depolarization to initiate channel opening. Format: cell-based. Conditions: for IC50: 30 mM K (block of open and inactivated channels), read-out: Cav 2.2 Activity IC50 at 30 mM K; for inhibition at 10 µM: 10 μM compound, read-out: Cav 2.2 Activity % Inh at 10 μM; for inhibition at 30 µM: 30 μM compound, read-out: Cav 2.2 Activity % Inh at 30 μM. From the text:
Human Cav2.2 channels were stably expressed in HEK293 cells along with alpha2-delta and beta subunits of voltage-gated calcium channels. An inwardly rectifying potassium channel (Kir2.3) was also expressed in these cells to allow more precise control of the cell membrane potential by extracellular potassium concentration. At low bath potassium concentration, the membrane potential is relatively negative, and is depolarized as the bath potassium concentration is raised. In this way, the bath potassium concentration can be used to regulate the voltage-dependent conformations of the channels. […] After the incubation period, Cav2.2 channel opening is triggered by addition of higher concentration of potassium (70 mM final concentration) to further depolarize the cell. The degree of state-dependent block can be estimated from the inhibitory potency of compounds after incubation in different potassium concentrations.
Calcium influx through Cav2.2 channels is determined using a calcium sensitive fluorescent dye in combination with a fluorescent plate reader. Fluorescent changes were measured with either a VIPR (Aurora Instruments) or FLIPR (Molecular Devices) plate reader.
• 1. Seed cells in Poly-D-Lysine Coated 96 or 384-well plate and keep in a 37° C.-10% CO2 incubator overnight • 2. […] Incubate in the dark at 25° C. for 60-70 min • 5. Remove dye, wash cells with 0.1 mL (96-well plate) or 0.06 mL (384-well plate) of 4, 12, 25, or 30 mM Potassium Pre-polarization Buffer (PPB) • 6. […] Incubate in the dark at 25° C. for 30 min • 8. Read cell plate on VIPR instrument, Excitation=480 nm, Emission=535 nm • 9. With VIPR continuously reading, add 0.1 mL (96-well plate) or 0.03 mL (384-well plate) of Depolarization Buffer (DB), which is 2× the final assay concentration, to the cell plate.

The structures appear in SMILES notation.

T1 sequence (Q00975 whole entry): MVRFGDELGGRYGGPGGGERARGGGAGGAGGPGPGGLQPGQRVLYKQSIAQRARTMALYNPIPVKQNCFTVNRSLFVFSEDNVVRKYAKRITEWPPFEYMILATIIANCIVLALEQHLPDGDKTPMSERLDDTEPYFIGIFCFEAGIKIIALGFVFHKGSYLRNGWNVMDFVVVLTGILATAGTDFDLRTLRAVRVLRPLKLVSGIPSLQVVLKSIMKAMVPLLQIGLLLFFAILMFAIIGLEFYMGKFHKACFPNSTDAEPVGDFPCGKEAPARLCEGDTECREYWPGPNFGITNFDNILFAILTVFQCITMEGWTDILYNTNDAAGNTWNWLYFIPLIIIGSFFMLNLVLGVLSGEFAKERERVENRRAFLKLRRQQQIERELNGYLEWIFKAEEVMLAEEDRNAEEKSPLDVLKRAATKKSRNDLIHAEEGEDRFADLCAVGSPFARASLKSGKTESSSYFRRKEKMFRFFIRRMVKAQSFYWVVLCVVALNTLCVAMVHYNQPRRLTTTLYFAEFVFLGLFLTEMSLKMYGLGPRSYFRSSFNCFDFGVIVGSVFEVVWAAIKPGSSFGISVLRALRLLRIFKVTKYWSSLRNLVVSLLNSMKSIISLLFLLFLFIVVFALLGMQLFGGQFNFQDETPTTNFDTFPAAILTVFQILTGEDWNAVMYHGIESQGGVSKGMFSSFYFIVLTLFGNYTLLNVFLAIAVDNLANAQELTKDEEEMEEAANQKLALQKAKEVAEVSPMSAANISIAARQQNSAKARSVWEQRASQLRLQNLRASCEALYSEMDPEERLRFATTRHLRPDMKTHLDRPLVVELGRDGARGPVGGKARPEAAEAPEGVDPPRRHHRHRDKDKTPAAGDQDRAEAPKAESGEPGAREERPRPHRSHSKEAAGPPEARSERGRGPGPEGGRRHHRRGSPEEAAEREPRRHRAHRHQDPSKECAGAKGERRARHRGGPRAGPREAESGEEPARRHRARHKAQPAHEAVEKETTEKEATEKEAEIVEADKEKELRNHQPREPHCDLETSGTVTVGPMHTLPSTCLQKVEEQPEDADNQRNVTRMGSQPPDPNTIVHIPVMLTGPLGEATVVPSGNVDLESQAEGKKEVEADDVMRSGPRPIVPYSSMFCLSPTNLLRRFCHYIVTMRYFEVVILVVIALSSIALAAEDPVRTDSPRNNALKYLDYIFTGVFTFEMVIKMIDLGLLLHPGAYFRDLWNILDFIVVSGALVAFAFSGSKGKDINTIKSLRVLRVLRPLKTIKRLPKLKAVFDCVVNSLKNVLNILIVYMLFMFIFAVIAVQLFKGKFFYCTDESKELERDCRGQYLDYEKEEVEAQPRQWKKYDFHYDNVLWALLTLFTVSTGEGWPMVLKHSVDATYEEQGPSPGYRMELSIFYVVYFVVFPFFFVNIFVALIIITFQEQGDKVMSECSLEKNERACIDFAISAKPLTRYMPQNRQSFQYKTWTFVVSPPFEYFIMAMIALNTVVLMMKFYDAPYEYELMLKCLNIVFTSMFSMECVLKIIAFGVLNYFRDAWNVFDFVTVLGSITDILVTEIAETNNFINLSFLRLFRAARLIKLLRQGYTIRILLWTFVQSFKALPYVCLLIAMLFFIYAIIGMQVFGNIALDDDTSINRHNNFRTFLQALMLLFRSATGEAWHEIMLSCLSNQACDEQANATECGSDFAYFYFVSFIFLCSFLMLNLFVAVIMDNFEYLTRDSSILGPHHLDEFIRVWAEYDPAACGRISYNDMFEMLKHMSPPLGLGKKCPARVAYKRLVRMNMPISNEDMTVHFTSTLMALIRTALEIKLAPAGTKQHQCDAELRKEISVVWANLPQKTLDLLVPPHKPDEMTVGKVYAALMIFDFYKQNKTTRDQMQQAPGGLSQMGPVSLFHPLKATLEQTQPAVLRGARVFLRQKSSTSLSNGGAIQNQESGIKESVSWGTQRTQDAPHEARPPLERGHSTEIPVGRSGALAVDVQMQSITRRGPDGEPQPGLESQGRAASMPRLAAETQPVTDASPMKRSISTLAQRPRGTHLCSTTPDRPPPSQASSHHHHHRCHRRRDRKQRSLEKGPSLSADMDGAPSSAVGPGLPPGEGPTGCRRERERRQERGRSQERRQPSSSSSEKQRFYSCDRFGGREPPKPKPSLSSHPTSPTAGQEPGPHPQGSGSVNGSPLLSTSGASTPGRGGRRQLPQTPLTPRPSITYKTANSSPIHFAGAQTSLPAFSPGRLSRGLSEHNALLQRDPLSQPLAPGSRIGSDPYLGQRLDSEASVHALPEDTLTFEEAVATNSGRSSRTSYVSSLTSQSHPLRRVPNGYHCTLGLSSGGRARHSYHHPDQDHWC
T1 sequence (P54289 25-1103 partner): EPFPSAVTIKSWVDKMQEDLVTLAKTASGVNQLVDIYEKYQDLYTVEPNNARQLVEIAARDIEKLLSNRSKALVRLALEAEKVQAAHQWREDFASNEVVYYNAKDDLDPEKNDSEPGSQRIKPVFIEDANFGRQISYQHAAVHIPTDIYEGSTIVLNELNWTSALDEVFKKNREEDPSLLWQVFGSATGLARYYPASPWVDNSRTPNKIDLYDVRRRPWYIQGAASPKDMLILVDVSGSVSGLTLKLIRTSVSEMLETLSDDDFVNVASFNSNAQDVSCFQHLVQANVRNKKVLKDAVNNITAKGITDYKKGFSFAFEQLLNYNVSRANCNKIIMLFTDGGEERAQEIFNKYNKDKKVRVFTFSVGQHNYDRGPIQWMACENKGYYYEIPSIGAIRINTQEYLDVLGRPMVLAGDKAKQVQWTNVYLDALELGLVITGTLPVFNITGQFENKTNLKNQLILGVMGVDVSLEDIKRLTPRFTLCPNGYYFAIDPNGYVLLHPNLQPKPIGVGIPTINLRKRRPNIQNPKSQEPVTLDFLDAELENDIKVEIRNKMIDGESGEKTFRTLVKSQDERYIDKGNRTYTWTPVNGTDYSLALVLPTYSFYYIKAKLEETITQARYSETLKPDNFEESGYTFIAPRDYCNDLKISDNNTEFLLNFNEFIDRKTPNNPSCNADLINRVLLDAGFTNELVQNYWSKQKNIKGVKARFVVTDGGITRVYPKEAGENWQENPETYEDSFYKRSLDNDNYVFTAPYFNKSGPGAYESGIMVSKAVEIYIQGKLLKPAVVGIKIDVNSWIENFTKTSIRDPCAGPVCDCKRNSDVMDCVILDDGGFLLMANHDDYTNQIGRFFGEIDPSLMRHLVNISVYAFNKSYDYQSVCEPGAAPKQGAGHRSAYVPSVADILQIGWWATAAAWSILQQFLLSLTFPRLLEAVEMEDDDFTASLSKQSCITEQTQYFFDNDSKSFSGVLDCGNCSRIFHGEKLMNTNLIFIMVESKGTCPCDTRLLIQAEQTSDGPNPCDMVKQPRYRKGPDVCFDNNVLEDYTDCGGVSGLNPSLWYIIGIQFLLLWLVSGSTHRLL
T1 sequence (P54284 whole entry partner): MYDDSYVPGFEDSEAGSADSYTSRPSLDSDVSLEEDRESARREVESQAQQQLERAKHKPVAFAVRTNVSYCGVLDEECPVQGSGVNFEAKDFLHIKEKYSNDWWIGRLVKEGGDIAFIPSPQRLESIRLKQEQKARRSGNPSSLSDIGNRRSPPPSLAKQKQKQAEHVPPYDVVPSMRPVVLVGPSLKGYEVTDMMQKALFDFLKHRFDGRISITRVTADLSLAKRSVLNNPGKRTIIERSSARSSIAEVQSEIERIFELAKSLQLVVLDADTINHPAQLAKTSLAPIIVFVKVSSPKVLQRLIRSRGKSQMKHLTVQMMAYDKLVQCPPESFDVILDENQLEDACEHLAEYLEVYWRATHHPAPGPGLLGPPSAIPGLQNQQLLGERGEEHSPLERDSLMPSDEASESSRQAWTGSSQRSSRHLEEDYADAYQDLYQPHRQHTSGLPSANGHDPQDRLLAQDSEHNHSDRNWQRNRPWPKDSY

With `CC(C)(C)c1cc(C(=O)NC2(C(=O)NCc3ccncc3)CCCCC2)cc(C(C)(C)C)n1` [Compound 100, 2,6-di-tert-butyl-N-(1-(pyridin-4-ylmethylcarbamoyl)cyclohexyl)isonicotinamide], the IC50 came to 154 nM.
With `CC(C)(C)c1cc(C(=O)NC2(C(=O)Nc3ccncc3)CCCCC2)cc(C(C)(C)C)c1` [Compound 75, 3,5-di-tert-butyl-N-(1-(pyridin-4-ylcarbamoyl)cyclohexyl)benzamide], the inhibition at 10 µM was found to be 93.6%, the inhibition at 30 µM was 101% and the IC50 turned out to be 545 nM.
In the case of `CC(C)(C)c1cc(C(=O)NC2(C(=O)N3CCCC3)CCCC2)cc(C(C)(C)C)n1` [Compound 92, 2,6-di-tert-butyl-N-(1-(pyrrolidine-1-carbonyl)cyclopentyl)isonicotinamide], the inhibition at 10 µM amounted to 89.5%, the inhibition at 30 µM worked out at 92.2% and the IC50 turned out to be 225 nM.
With `COc1c(C(C)(C)C)cc(C(=O)NC2(C(=O)NCc3cc(C)on3)CCCCC2)cc1C(C)(C)C` [Compound 86, 3,5-di-tert-butyl-4-methoxy-N-(1-((5-methylisoxazol-3-yl)methylcarbamoyl)cyclohexyl)benzamide], the inhibition at 10 µM amounted to 99.1%, the inhibition at 30 µM worked out at 104% and the IC50 was determined as 9.57 nM.
`CN(C)c1ccc(CNC(=O)C2(NC(=O)c3cc(C(C)(C)C)cc(C(C)(C)C)c3)CCCCC2)cc1` [Compound 48, 3,5-di-tert-butyl-N-(1-(4-(dimethylamino)benzylcarbamoyl)cyclohexyl)benzamide]: the inhibition at 10 µM is 88.7%, the inhibition at 30 µM was 90.3% and the IC50 worked out at 371 nM.
The matching figures for `CC(C)(C)c1cc(C(=O)NC2(C(=O)Nc3ccccc3)CCCCC2)cc(C(C)(C)C)c1O` [Compound 111, 3,5-di-tert-butyl-4-hydroxy-N-(1-(phenylcarbamoyl)cyclohexyl)benzamide]: 71.8%, 106% and 551 nM.
As to `CC(C)(C)c1cc(C(=O)NC2(C(=O)NCc3cccc(C(F)(F)F)c3)Cc3ccccc3C2)cc(C(C)(C)C)n1` [Compound 54, 2,6-di-tert-butyl-N-(2-(3-(trifluoromethyl)benzylcarbamoyl)-2,3-dihydro-1H-inden-2-yl)isonicotinamide], the inhibition at 10 µM is 46.2% and the inhibition at 30 µM was 68.4%.
Turning to `CC(C)(C)NC(=O)C(C)(C)c1ccc(C(=O)NC2(C(=O)NCc3ccccc3)CCCCC2)cc1` [Compound 125, N-(1-(benzylcarbamoyl)cyclohexyl)-4-(1-(tert-butylamino)-2-methyl-1-oxopropan-2-yl)benzamide], the inhibition at 10 µM was 89.6%, the inhibition at 30 µM was determined as 85.8% and the IC50 was determined as 739 nM.
The matching figures for `CC(C)(C)c1cc(C(=O)NC2(C(=O)N3CCN(Cc4ccccc4)CC3)CCCCC2)cc(C(C)(C)C)n1` [Compound 69, N-(1-(4-benzylpiperazine-1-carbonyl)cyclohexyl)-2,6-di-tert-butylisonicotinamide]: 88.3%, 95.3% and 538 nM.
The like results for `COc1ccc(CNC(=O)C2(NC(=O)c3cc(C(C)(C)C)c(OC)c(C(C)(C)C)c3)CCOCC2)cc1` [Compound 114, 4-(3,5-di-tert-butyl-4-methoxybenzamido)-N-(4-methoxybenzyl)tetrahydro-2H-pyran-4-carboxamide] were, in that order, 90.8%, 92.4% and 32.4 nM.
As for `CC(C)(C)c1cc(C(=O)NC2(C(=O)Nc3cccc(C(F)(F)F)c3)CCOCC2)ccn1` [Compound 120, 2-tert-butyl-N-(4-(3-(trifluoromethyl)phenylcarbamoyl)tetrahydro-2H-pyran-4-yl)isonicotinamide], the inhibition at 10 µM is 61.2%.
On to `Cc1cnc(CNC(=O)C2(NC(=O)c3cc(C(C)(C)C)c(O)c(C(C)(C)C)c3)CCCCC2)cn1` [Compound 5, 3,5-di-tert-butyl-4-hydroxy-N-(1-((5-methylpyrazin-2-yl)methylcarbamoyl)cyclohexyl)benzamide], for which the inhibition at 10 µM was 94.6%, the inhibition at 30 µM was 96.4% and the IC50 amounted to 127 nM.
Regarding `CC(C)(C)c1cc(C(=O)NC2(C(=O)NCc3ccc(S(C)(=O)=O)cc3)CCCCC2)cc(C(C)(C)C)n1` [Compound 106, 2,6-di-tert-butyl-N-(1-(4-(methylsulfonyl)benzylcarbamoyl)cyclohexyl)isonicotinamide], the IC50 turned out to be 317 nM.
Take `COc1ccc(CNC(=O)C2(NC(=O)c3cc(C(C)(C)C)c(O)c(C(C)(C)C)c3)CCCCC2)cc1` [Compound 67, 3,5-di-tert-butyl-4-hydroxy-N-(1-(4-methoxybenzylcarbamoyl)cyclohexyl)benzamide]: the inhibition at 10 µM was found to be 94.4%, the inhibition at 30 µM is 98.6% and the IC50 was 20.6 nM.
In the case of `COc1ccc(CNC(=O)C2(NC(=O)Cc3cc(C(C)(C)C)c(OC)c(C(C)(C)C)c3)CCCCC2)cc1` [Compound 18, 1-(2-(3,5-di-tert-butyl-4-methoxyphenyl)acetamido)-N-(4-methoxybenzyl)cyclohexanecarboxamide], the inhibition at 10 µM is 40.7% and the inhibition at 30 µM came out at 34.5%.
As for `CC(C)(C#N)c1ccc(C(=O)NC2(C(=O)NCc3cccc(C(F)(F)F)c3)Cc3ccccc3C2)cc1` [Compound 55, 2-(4-(2-cyanopropan-2-yl)benzamido)-N-(3-(trifluoromethyl)benzyl)-2,3-dihydro-1H-indene-2-carboxamide], the inhibition at 10 µM was determined as 89% and the inhibition at 30 µM was found to be 100%.
Consider `Cc1cc(CNC(=O)C2(NC(=O)c3cc(C(C)(C)C)c(O)c(C(C)(C)C)c3)CC2)nn1C` [Compound 2, 3,5-di-tert-butyl-N-(1-((1,5-dimethyl-1H-pyrazol-3-yl)methylcarbamoyl)cyclopropyl)-4-hydroxybenzamide], for which the inhibition at 10 µM came to 99%, the inhibition at 30 µM stood at 104% and the IC50 was found to be 1410 nM.
Consider `CC(C)(C)c1cc(C(=O)NC2(C(=O)NCc3cccnc3)CCCCC2)cc(C(C)(C)C)c1` [Compound 103, 3,5-di-tert-butyl-N-(1-(pyridin-3-ylmethylcarbamoyl)cyclohexyl)benzamide], for which the IC50 came to 65.3 nM.
Still for that read-out and setting: with `CC(C)(C)c1cc(C(=O)NC2(C(=O)NCCCN3CCOCC3)CCCCC2)cc(C(C)(C)C)c1` [Compound 102, 3,5-di-tert-butyl-N-(1-(3-morpholinopropylcarbamoyl)cyclohexyl)benzamide] the figure was 253 nM.
`Cc1cc(CNC(=O)C2(NC(=O)c3cc(C(C)(C)C)c(O)c(C(C)(C)C)c3)CCCCC2)nn1C` [Compound 8, 3,5-di-tert-butyl-N-(1-((1,5-dimethyl-1H-pyrazol-3-yl)methylcarbamoyl)cyclohexyl)-4-hydroxybenzamide]: the inhibition at 10 µM turned out to be 100%, the inhibition at 30 µM turned out to be 99% and the IC50 turned out to be 129 nM.
On to `CC(C)(C)c1cc(NC(=O)C2(NCc3ccccc3)CCCCC2)cc(C(C)(C)C)c1` [Compound 43, 1-(benzylamino)-N-(3,5-di-tert-butylphenyl)cyclohexanecarboxamide], for which the inhibition at 10 µM was determined as 76.2% and the inhibition at 30 µM came out at 82.5%.
With `CC(C)(C)c1cc(C(=O)NC2(C(=O)NCc3nccs3)CCCCC2)cc(C(C)(C)C)n1` [Compound 80, 2,6-di-tert-butyl-N-(1-(thiazol-2-ylmethylcarbamoyl)cyclohexyl)isonicotinamide], the inhibition at 10 µM was 98.4%, the inhibition at 30 µM is 104% and the IC50 stood at 106 nM.
On to `CC(C)(C)c1cc(C(=O)NC2(C(=O)NCc3ccc(S(C)(=O)=O)cc3)CCOCC2)cc(C(C)(C)C)c1O` [Compound 14, 4-(3,5-di-tert-butyl-4-hydroxybenzamido)-N-(4-(methylsulfonyl)benzyl)tetrahydro-2H-pyran-4-carboxamide], for which the inhibition at 10 µM worked out at 80.7% and the inhibition at 30 µM amounted to 81.9%.
With `COc1c(C(C)(C)C)cc(C(=O)NC2(C(=O)NCc3cccc(C(F)(F)F)c3)CCCCC2)cc1C(C)(C)C` [Compound 33, 3,5-di-tert-butyl-4-methoxy-N-(1-(3-(trifluoromethyl)benzylcarbamoyl)cyclohexyl)benzamide], the inhibition at 10 µM turned out to be 81.4%, the inhibition at 30 µM came to 90.5% and the IC50 worked out at 37.6 nM.
Turning to `CC(C)(C)c1cc(C(=O)NC2(C(=O)NCc3ccccn3)CCCCC2)cc(C(C)(C)C)c1` [Compound 47, 3,5-di-tert-butyl-N-(1-(pyridin-2-ylmethylcarbamoyl)cyclohexyl)benzamide], the inhibition at 10 µM turned out to be 93.7%, the inhibition at 30 µM was 95.3% and the IC50 worked out at 35.6 nM.
